# From ChEMBL document CHEMBL4270640, “Discovery of new 2, 5-disubstituted 1,3-selenazoles as selective human carbonic anhydrase IX inhibitors with potent anti-tumor activity” (Eur J Med Chem, 2018)
# Active and inactive are the calls of the source. The calls are words filed in the database; no cut-off is given here.
# How the values were obtained:
# [1] = biological target: Carbonic anhydrase 9 (Homo sapiens, UniProt Q16790); experiment: Inhibition of recombinant human carbonic anhydrase 9 incubated for 15 mins prior to testing by stopped flow CO2 hydration assay
# [2] = test system: PC-3; experiment: Antiproliferative activity against human PC3 cells assessed as cell viability at 1 uM after 48 hrs under normoxic condition by MTT assay relative to control; format: functional; details: for viability at 1 µM: PC-3, 48 h, read-out: Activity
# [3] = test system: MDA-MB-231; experiment: Antiproliferative activity against human MDA-MB-231 cells assessed as cell viability at 1 uM after 48 hrs under normoxic condition by MTT assay relative to control; format: functional; details: for viability at 1 µM: MDA-MB-231, 48 h, read-out: Activity
# [4] = test system: PC-3; experiment: Antiproliferative activity against human PC3 cells assessed as cell viability at 10 uM after 48 hrs under normoxic condition by MTT assay relative to control; format: functional
# [5] = test system: PC-3; experiment: Antiproliferative activity against human PC3 cells assessed as cell viability at 1 uM after 48 hrs under hypoxic condition by MTT assay relative to control; format: functional; details: PC-3, 48 h, read-out: Activity
# [6] = test system: MDA-MB-231; experiment: Antiproliferative activity against human MDA-MB-231 cells assessed as cell killing at 10 uM after 48 hrs under normoxic condition by MTT assay relative to control; format: functional
# [7] = test system: PC-3; experiment: Antiproliferative activity against human PC3 cells at 10 uM after 48 hrs under hypoxic condition by MTT assay relative to control; format: functional
# [8] = test system: PC-3; experiment: Antiproliferative activity against human PC3 cells assessed as cell viability at 30 uM after 48 hrs under normoxic condition by MTT assay relative to control; format: functional; details: PC-3, 48 h, read-out: Activity
# [9] = test system: PC-3; experiment: Antiproliferative activity against human PC3 cells assessed as cell viability at 100 uM after 48 hrs under normoxic condition by MTT assay relative to control; format: functional; details: PC-3, 48 h, read-out: Activity
# [10] = test system: MDA-MB-231; experiment: Antiproliferative activity against human MDA-MB-231 cells assessed as cell killing at 30 to 100 uM after 48 hrs under normoxic condition by MTT assay; format: functional, cell-based
# [11] = test system: MDA-MB-231; experiment: Antiproliferative activity against human MDA-MB-231 cells assessed as cell viability at 100 uM after 48 hrs under hypoxic condition by MTT assay relative to control; format: functional; details: MDA-MB-231, 48 h, read-out: Activity
compound,measurement,setting,value
COc1ccc([Te]Cc2cnc(-c3ccc(S(N)(=O)=O)cc3)[se]2)cc1,Ki,[1],0.89 nM
same,viability at 1 µM,[2],23%
same,viability at 1 µM,[3],16%
Cc1ccc([Se]Cc2cnc(-c3ccc(S(N)(=O)=O)cc3)[se]2)cc1,Ki,[1],7.1 nM
NS(=O)(=O)c1ccc(-c2ncc(-c3ccc(Br)cc3)[se]2)cc1,Ki,[1],0.87 nM
COc1cccc(-c2cnc(-c3ccc(S(N)(=O)=O)cc3)[se]2)c1,Ki,[1],56.3 nM
N=C(N)SCc1cnc(-c2ccc(S(N)(=O)=O)cc2)[se]1,Ki,[1],7 nM
Cc1cnc(-c2ccc(S(N)(=O)=O)cc2)[se]1,Ki,[1],6.9 nM
NS(=O)(=O)c1ccc(-c2ncc(-c3ccc([N+](=O)[O-])cc3)[se]2)cc1,Ki,[1],8.2 nM
same,viability at 1 µM,[2],60%
same,viability at 10 µM,"[4]; PC-3, 48 h, read-out: Activity",10%
same,viability at 1 µM,[5],32%
same,viability at 1 µM,[3],73%
same,Activity,[6],>90%
NS(=O)(=O)c1ccc(-c2ncc(C(=O)O)[se]2)cc1,Ki,[1],9 nM
COc1ccc([Se]Cc2cnc(-c3ccc(S(N)(=O)=O)cc3)[se]2)cc1,Ki,[1],0.55 nM
same,Activity,[2],inactive
same,Activity,[4],inactive
same,Activity,[7],77%
same,viability at 30 µM,[8],59%
same,viability at 100 µM,[9],11%
same,Activity,[3],inactive
same,Activity,[6],inactive
same,Activity,[10],Active
same,viability at 100 µM,[11],46%
NS(=O)(=O)c1ccc(-c2ncc(C[Se]c3ccccc3)[se]2)cc1,Ki,[1],9.1 nM
NS(=O)(=O)c1ccc(-c2ncc(-c3ccccc3)[se]2)cc1,Ki,[1],6.5 nM
NS(=O)(=O)c1ccc(-c2ncc(C[Te]c3ccccc3)[se]2)cc1,Ki,[1],7.2 nM
NS(=O)(=O)c1ccc(-c2ncc(CSc3ccccc3)[se]2)cc1,Ki,[1],5.4 nM
Cc1ccc([Te]Cc2cnc(-c3ccc(S(N)(=O)=O)cc3)[se]2)cc1,Ki,[1],2.6 nM
NS(=O)(=O)c1ccc(-c2ncc(CCl)[se]2)cc1,Ki,[1],2.8 nM
NS(=O)(=O)c1ccc(-c2ncc(-c3ccc(Cl)cc3)[se]2)cc1,Ki,[1],8.4 nM
NC(=[Se])c1ccc(S(N)(=O)=O)cc1,Ki,[1],7.6 nM
NS(=O)(=O)c1ccc(-c2ncc(-c3ccc(F)cc3)[se]2)cc1,Ki,[1],7.5 nM
